Measured values published in patent US20260314597A1, “A NOVEL APPROACH TO INTERFERE IN THE PHENYLPROPANOID BIOSYNTHETIC PATHWAY TO REDUCE PINK-RIB DISORDER IN FRESH LETTUCE” (University of Florida Research Foundation, Inc., priority 2022, published 2026).
“Also recorded” adds a separate entry of the source.

Assays:
[1] = tested on: polyphenol oxidase (PPO); test: PPO activity in treated wounded midribs; format: biochemical, lettuce (iceberg, Romaine); conditions: 5 d at 5° C.; for PPO activity: L-cysteine 4.1 mM or melatonin 4.3 mM; for effect on PPO activity: iceberg and Romaine
Excerpt: (§1) In all tests, experimental setup began immediately upon arrival to the laboratory. 90 outer leaves were randomly selected from 18 to 22 lettuce heads that met commercial and damage-free quality standards. A midrib segment (12.5 cm) was excised from the center of each leaf and excess leaf blade tissue was trimmed parallel to the midrib. This procedure was adapted from the wounding procedure of Cantwell (2016). Each midrib was then partially sliced transversally at 1.3-cm increments along the midrib. Midribs (n=15) were immediately immersed for 30 s in one of five treatment solutions: deionized water (wounded control), L-cysteine (4.1 mM), naringenin (1.8 mM) with 20% dimethyl sulfoxide (DMSO), serotonin (2.8 or 5.7 mM) or melatonin (4.3 mM) with 0.50% DMSO. Immediately following immersion, the midribs for each treatment were patted dry using paper towels and placed (n=5) in a breathable, high-density polyethylene bag (n=3) (Narrow Profile Produce Bags [14×18 inches] Model No. S-19156, Uline®, Pleasant Prairie, WI). Unwounded control midribs were stored in the same manner. To allow for direct comparison, each cut site on each midrib was assigned an initial discoloration value on day 1 based on the coloration of the rib. Samples were stored at 5° C. with 95-98% relative humidity (RH) for 5 d, simulating commercial storage.
PPO activity was prepared and determined as reported by Teng et al. (2019) with slight modifications. Lettuce samples (300 mg) were homogenized in 150% (w/v) chilled phosphate buffer (pH 6.2, 0.05 M). Following chilling of test tubes with samples in an ice bath, samples were centrifuged at 9660×g for 10 min at 4° C. The increase in absorbance was measured every 3 s for 1 min. The slope of the linear portion of the time curve was calculated. One unit (U) of PPO activity was defined as an increase in OD410 of 0.1 unit within 1 min.
(§2) The imaging data (a* value), enzyme activity (PAL and PPO), and metabolite (chlorogenic acid) results were expressed as mean±standard error and analyzed by lettuce type (iceberg or Romaine). For imaging data, an unpaired t-test was used to identify differences within a treatment throughout storage and among treatment groups at each time point. Treatment groups were defined as wounded, unwounded, L-cysteine, and melatonin. […] Analyses of variance were performed for PAL, PPO, and metabolite analyses using SAS software (version 9.4; SAS Institute, Cary, NC) to identify differences among treatment groups. Differences among treatments groups were separated by Tukey's Honest Significant Difference (HSD) test with a confidence level of 95%. The correlation between visual rating and a* value was evaluated for significance via an F-test, from which the P-value of the correlation was calculated.

[2] = tested on: phenylalanine ammonia-lyase (PAL); test: PAL activity in crude protein extracts of treated wounded midribs; format: biochemical, lettuce (iceberg, Romaine); conditions: 5 d at 5° C.; for PAL activity: L-cysteine 4.1 mM or melatonin 4.3 mM; for effect on PAL activity: iceberg and Romaine, vs wounded control
Excerpt: as §1
PAL activity was measured using a crude protein extraction following a method reported by Kim et al. (2020) with some modifications. Fresh lettuce samples (300 mg) were ground with liquid nitrogen in a pre-chilled mortar and pestle. A 0.1 mM Tris-HCl buffer (pH 8.3) was added at a 1:1 (w:v). The solution was incubated at 4° C. for 1 h and then centrifuged at 4° C., 9660×g for 15 min. Supernatants were collected in chilled tubes. Total protein content was measured using Quick Start Bradford protein assay kit (Bio-Rad, Hercules, CA, USA) and Bovine Serum Albumin (BSA) as a standard (10 mg mL^−1 in deionized water). Protein concentration was calculated based on the absorbance at 595 nm measured with a NanoDrop (One Microvolume UV-Vis Spectrophotometer, Thermo Scientific, Wilmington, DE, USA) and the standard curve. For the PAL activity test, 150 μL aliquots of the protein extract were incubated in a reaction buffer containing 0.1 mM Tris-HCl buffer (pH 8.3), 5 mM dithiothreitol (DTT), and 5 mM phenylalanine. Reaction mixtures were incubated at 37° C. for 90 min and stopped with the addition of 40 μL of 30% acetic acid. Reaction products were extracted with 600 μL of ethyl acetate and then centrifuged at 22° C., 9660×g for 5 min. The supernatant was dried in a speed vac and re-dissolved in 100 μL of 50% methanol. The final extract (10 μL) was analyzed by HPLC using the method previously described in Section 2.4.
as §2

[3] = tested on: iceberg and Romaine lettuce midribs; test: Visual (subjective) pink rib development in wounded, immersed lettuce midribs stored at 5° C.; format: in vivo; conditions: for effect on pink rib discoloration: iceberg and Romaine; for duration of inhibition of pink rib development: 30 s immersion, 5° C.
Experimental: Six preliminary experiments were performed to determine treatment conditions for the three final experiments reported here. It was determined that the method developed by Cantwell (2016) induced pink rib discoloration in lettuce midribs during storage at 5° C. via mimicking mechanical damage and was, therefore, selected for use in all preliminary and final tests. […] Concentrations evaluated were: L-cysteine (0.4, 0.8, 2.1, 4.1, 8.3 mM), naringenin (0.2, 0.4, 0.9, 1.8, 3.7 mM), serotonin (2.8, 5.7 mM), and melatonin (0.2, 0.4, 1.1, 2.2, 4.3 mM) (data not presented). […] Therefore, this study employed the one or two concentrations for each compound with the greatest potential efficacy in three independent tests, Test 1 to 3 (Table 1).
For Test 1, the evaluations for pink rib development, protein quantification, and enzyme activity were conducted with Romaine and iceberg lettuce heads (36 heads per type; cultivars unknown) purchased (February 2020) upon arrival at a local grocery store in Gainesville, FL, and immediately transported to the Postharvest Horticulture Laboratory at the University of Florida in Gainesville, FL. For Test 2, metabolite extraction and detection were conducted with commercially grown, harvested, and cooled Romaine (‘Tall Guzmaine’) and iceberg (‘Chosen’) lettuce (December 2020) grown in Belle Glade, FL. For Test 3, untargeted metabolomics was performed using commercially grown, harvested, and cooled Romaine (‘Manatee’) lettuce grown in Belle Glade, FL (April 2021). To keep the lettuce head samples cool while preventing freeze damage during transport, a 3- to 6-inch layer of crushed ice was placed on the bottom of each 114-L cooler. A piece of waxed, corrugated fiberboard was placed on top of the ice prior to packing with the lettuce samples for transport the same day to the Postharvest Horticulture Laboratory in Gainesville (approximately 4 h distant).
as §1
All chemicals were of laboratory or reagent grade from Alfa Aesar (Thermo Fisher Scientific, Ward Hill, MA, USA) or Phyto Technology Laboratories (Shawnee Mission, KS, USA). L-cysteine (4.1 mM) solution was prepared by dissolving […] in 100 ml deionized water. Naringenin (1.8 mM) solution was prepared by dissolving […] in 20 mL of DMSO and diluting to a 100 mL volume with deionized water. A stock solution of serotonin (5.7 mM) was prepared by dissolving 100 mg of serotonin in 100 ml of deionized water; a second solution of serotonin (2.8 mM) was prepared by diluting the stock solution two-fold with deionized water. […]

PPO activity ([1]; Romaine, wounded control 5.1) [U]	PPO activity ([1]; iceberg, wounded control 1.7) [U]	PAL activity ([2]; Romaine, wounded control 9.56) [pkat mg^−1]	PAL activity ([2]; iceberg, wounded control 6.73) [pkat mg^−1]	Structure (SMILES)	effect on PPO activity [1]	effect on PAL activity [2]	effect on pink rib discoloration ([3]; L-cysteine 4.1 mM, up to 5 d at 5° C., vs wounded control)	duration of inhibition of pink rib development ([3]; melatonin 4.3 mM, Romaine, vs wounded control) [days]	duration of inhibition of pink rib development ([3]; melatonin 4.3 mM, iceberg, vs wounded control) [days]	pink rib discoloration (visual) ([3]; melatonin 4.3 mM, Romaine, over 5 d at 5° C. (P=0.0058))	effect on pink rib discoloration ([3]; melatonin 4.3 mM, 5 d at 5° C., vs controls)
6.4	2.6	11.07	5.43	N[C@@H](CS)C(=O)O [L-cysteine]	no significant differences in PPO activity; also recorded: no effect on PPO activity; also recorded: neither PPO activity nor pink rib expression were reduced	no significant reduction in PAL activity	negligible effect on reducing pink rib; also recorded: equal or greater discoloration; also recorded: significantly higher discoloration than the control after 5 d; also recorded: ineffective in reducing pink rib; also recorded: neither PPO activity nor pink rib expression were reduced				
6.2	2.6	6.06	7.44	COc1ccc2[nH]cc(CCNC(C)=O)c2c1 [melatonin]	no significant differences in PPO activity; also recorded: no effect on PPO activity; also recorded: neither enzyme activity (PAL or PPO) nor chlorogenic acid concentration were impacted; also recorded: did not significantly affect PAL or PPO enzyme activities	no significant reduction in PAL activity; also recorded: neither enzyme activity (PAL or PPO) nor chlorogenic acid concentration were impacted; also recorded: did not significantly affect PAL or PPO enzyme activities		3	5	slight (2=slight)	equal to or similar to unwounded controls; also recorded: dramatically less pink rib discoloration
